From PMC5054302 (Molecular and biochemical parasitology, 2011) come the findings set out here.

The subject of assay [1] is HepG2 cells. Nature of the assay: cells. The assay is classed as cell-based, human. The settings on record: read-out: Hepatocyte counterscreen. Background: A counterscreen serves to expose hits that act by an unwanted route or on another target.
In assay [2] the test system is P. falciparum TM90C2B (C2B isolates, Y268S cytochrome b). Nature of the assay: Radio-labeled hypoxanthine growth assay, atovaquone-resistant C2B isolates. The assay is classed as cell-based, Plasmodium falciparum.
In assay [3] the test system is P. berghei liver stages. Kind of assay: microbe, parasite or virus in culture. Conditions: for Selectivity index: IC50 against hepatocytes divided by IC50 for P. berghei liver stage development. The assay is classed as cell-based, Plasmodium berghei.
In assay [4] the test system is cytochrome bc1 complex, L275F yeast cytochrome b mutant. It counts as biochemical, Saccharomyces cerevisiae. The settings on record: IC50 against L275F mutant enzyme divided by IC50 of wild-type enzyme.
The test system of assay [5] is cytochrome bc1 complex, M139L yeast cytochrome b mutant. The assay is classed as biochemical, Saccharomyces cerevisiae. Conditions: IC50 against M139L mutant enzyme divided by IC50 of wild-type enzyme.
In assay [6] the target is cytochrome bc1 complex, Y279S yeast cytochrome b mutant (Saccharomyces cerevisiae, UniProt P00163+P08067, Y279S). It counts as biochemical.

The structures appear in SMILES notation. Like-named read-outs stand apart in the source and are kept apart here.

As for `O=C1C(O)=C([C@H]2CC[C@H](c3ccc(Cl)cc3)CC2)C(=O)c2ccccc21` [Atovaquone, reference compound], the IC50 in assay [1] (Homo sapiens, HepG2, 48 h) was 38.4 µM; in assay [2], 6.6 to 7.1 µM; in assay [3] (Plasmodium berghei, HepG2, 48 h, read-out: IC50 against P. berghei) it was 0.0197 µM.

For the molecule `CC(CCCCCC(F)(F)F)CC1=C(O)C(=O)c2ccccc2C1=O` (stereo not shown) [NQ1, 2-OH-3-(2-methyl-trifluorooctyl)-naphthoquinone], the IC50 in assay [1] (MTT, HepG2 cells alone, 48 h) amounted to 6.83 µM. Moreover, the Relative efficacy in assay [4] and in assay [5] was under 1.0 in each case. The same molecule yielded a Selectivity index in assay [3] of 399.

For the molecule `CCCCCCC(C)CC1=C(O)C(=O)c2c(C)cccc2C1=O` (stereo not shown) [NQ2, 2-OH-3-(2-methyl-octyl)-8-methyl-naphthoquinone], the IC50 in assay [1] (MTT, HepG2 cells alone, 48 h) is 2.48 µM. The same molecule gave a Selectivity index in assay [3] of 10.1. Also, in assay [6] (IC50 against Y279S mutant enzyme divided by IC50 of wild-type enzyme), the Relative efficacy is 0.37. Besides, in assay [6] (at 500 nM, biphasic titration), the “Extent of inhibition of Y279S enzyme activity” value is “did not reach complete inhibition”.

As for `Cc1cccc2c1C(=O)C(O)=C(CC(C)CCCCCC(F)(F)F)C2=O` (stereo not shown) [NQ3, 2-OH-3-(2-methyl-trifluorooctyl)-8-methyl-naphthoquinone], the IC50 in assay [1] (MTT, HepG2 cells alone, 48 h) was over 54.3 µM.

Turning to `CCCCCCC(C)CC1=C(O)C(=O)c2ccccc2C1=O` (stereo not shown) [S-10576, reference compound], the IC50 in assay [1] (MTT, HepG2 cells alone, 48 h) was over 66.6 µM.
